Test results as given in ChEMBL document CHEMBL1201862, “PubChem BioAssay data set” (2004).
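Grown in 96-well plates, cells were treated for 48 hours with each compound at five concentrations. Insufficient inhibition: endpoint recorded as highest concentration tested. GI50 is the concentration that inhibits growth by half.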 Calls of active or inactive are those of the source. Rule as the data show it: active = GI50 up to about 1.1 µM and inactive = higher.

Key:
Assay in all cases: NCI anticancer screen, dose series, 48 h
[1] = system: DLD-1
[2] = system: HL-60
[3] = system: SN12C
[4] = system: LXFL 529
[5] = system: SF-295
[6] = system: SNB-75
[7] = system: KM-20L2
[8] = system: DMS-114
[9] = system: NCI-H522
[10] = system: UACC-257
[11] = system: SK-MEL-2
[12] = system: LOX IMVI
[13] = system: OVCAR-3
[14] = system: SNB-78
[15] = system: NCI/ADR-RES
[16] = system: MDA-MB-231
[17] = system: MDA-MB-435
[18] = system: BT-549
[19] = system: T47D
[20] = system: DU-145

Measured: GI50

O=C(CC1(O)C(=O)Nc2c(Cl)cc(Cl)cc21)c1cccc2ccccc12 (centres undefined)
inactive: [1] 15.8 µM | [2] 10.5 µM | [3] 18.4 µM | [4] 15.3 µM | [5] 15.7 µM | [6] 18.2 µM | [7] 18.9 µM | [8] 17.9 µM | [9] 14.3 µM | [10] 15.8 µM | [11] 17.7 µM | [12] 17.7 µM | [13] 16.1 µM | [14] 26.7 µM

O=c1c2cc(Br)cc(Br)c2nc(CCCl)n1CCO
inactive: [1] > 100 µM | [2] 37.8 µM | [3] 97.5 µM | [4] 77.6 µM | [5] 88.3 µM | [6] 22.6 µM | [7] > 100 µM | [8] 42.4 µM | [9] 62.4 µM | [10] 72.9 µM | [11] > 100 µM | [12] > 100 µM | [13] 52.2 µM | [14] > 100 µM

C/C(=N\NC(=S)N1CCN(c2ccccn2)CC1)c1ncccn1
inactive: [6] 3.43 µM | [17] 2.83 µM | [18] 4.67 µM | [14] 6.05 µM | [20] 2.51 µM
active: [1] 0.00272 µM | [2] 0.00752 µM | [3] 0.566 µM | [4] 0.001 µM | [15] 0.0179 µM | [5] 0.0594 µM | [7] 0.00984 µM | [16] 0.0214 µM | [8] 0.00233 µM | [9] 0.0538 µM | [10] 0.0165 µM | [11] 0.31 µM | [12] 0.0986 µM | [19] 0.0953 µM

Cc1cc(NS(=O)(=O)c2ccc(Nc3c4ccccc4nc4c(C(=O)N5CCN(CCO)CC5)cccc34)cc2)no1
inactive: [1] > 100 µM | [2] 47.6 µM | [3] > 100 µM | [4] > 100 µM | [5] > 100 µM | [6] > 100 µM | [7] > 100 µM | [8] > 100 µM | [9] 79.4 µM | [10] > 100 µM | [11] > 100 µM | [12] 39.5 µM | [13] > 100 µM | [14] > 100 µM

CCN(CC)CCOc1ccc(/C=C(\C#N)c2ccc(OCCN(CC)CC)cc2)cc1
inactive: [1] 19.5 µM | [2] 4.84 µM | [3] 45.1 µM | [4] 16.1 µM | [5] 13.4 µM | [6] 16 µM | [7] 1.56 µM | [8] 10.8 µM | [9] 11.3 µM | [10] 16.9 µM | [11] 21.4 µM | [12] 12.6 µM | [13] 22.4 µM | [14] 20.5 µM | [20] 65.6 µM

COc1ccc(C)cc(O)c1=O
inactive: [1] 35.1 µM | [2] 19.1 µM | [3] 38.5 µM | [4] 16.2 µM | [5] 27.9 µM | [6] > 100 µM | [7] 40.2 µM | [8] 14 µM | [9] 30.4 µM | [10] 33.2 µM | [11] 94.8 µM | [12] 11.9 µM | [13] 31.6 µM | [14] > 100 µM

COc1cc([C@@H]2c3cc4c(cc3[C@@H](NCc3ccccc3F)C3COC(=O)[C@@H]32)OCO4)cc(OC)c1O (some centres undefined)
active: [9] 0.361 µM
inactive: [1] 11.9 µM | [2] 1.18 µM | [3] 2.62 µM | [4] 11.3 µM | [5] 1.43 µM | [6] 5.45 µM | [7] 2.71 µM | [8] 3.45 µM | [10] 3.1 µM | [11] 23.4 µM | [12] 3.07 µM | [13] 15.6 µM | [14] 25.8 µM
